For one assay, the target named is human P2Y12 receptor (Homo sapiens, UniProt Q9H244). The assay can be described thus: Human P2Y12 recombinant cell membrane binding assay with 33P 2MeS-ADP. The note with it: competition against 33P 2MeS-ADP, membranes of CHO cells with recombinant human P2Y12 receptor. The procedure, abridged:
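CHO membranes expressing human P2Y12 (20 μg/ml stock) preincubated 15 min at RT with compound in HEPES pH 7.4 buffer, then 33P 2MeS-ADP (1.61 nM working solution) added for 20 min at RT. Bound label filtered and counted; four-point, five-fold series from 10 μM final, triplicate, four-parameter fit.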

For assay [1], the system named is human platelet rich plasma. Briefly: Inhibition of human platelet aggregation, 96-well assay. To be noted: Homo sapiens, Platelet, 20 min. It is filed as cell-based. The procedure, abridged:
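ADP-induced aggregation read as 650 nm absorbance every minute for 20 min at 37 °C, with shaking between reads. PRP (~3×E8 platelets/ml, diluted with PPP, ACD-A blood from healthy volunteers) was exposed to compound for 5 min before adding a 40 μM ADP stock (15 μl into 150 μl).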

Sequence of human P2Y12 receptor (Q9H244 whole entry): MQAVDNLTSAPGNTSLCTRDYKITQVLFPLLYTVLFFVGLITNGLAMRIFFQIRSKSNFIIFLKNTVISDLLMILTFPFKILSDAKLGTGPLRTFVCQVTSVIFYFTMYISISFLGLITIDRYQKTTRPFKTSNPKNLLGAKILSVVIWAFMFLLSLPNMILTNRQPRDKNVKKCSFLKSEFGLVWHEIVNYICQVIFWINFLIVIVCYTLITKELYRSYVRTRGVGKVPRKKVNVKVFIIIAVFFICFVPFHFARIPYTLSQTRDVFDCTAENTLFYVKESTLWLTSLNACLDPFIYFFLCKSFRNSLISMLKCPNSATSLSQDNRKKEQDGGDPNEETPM

For `CCCCOC(=O)N1CCN(C(=O)[C@@H](NC(=O)c2cc(OCC(=O)N3CCC[C@H]3C(=O)NC3CCC3)n(-c3ccccc3)n2)C(C)C)CC1` [Example 222, 4-[(S)-2-({5-[2-((S)-2-Cyclobutylcarbamoyl-pyrrolidin-1-yl)-2-oxo-ethoxy]-1-phenyl-1H-pyrazole-3-carbonyl}-amino)-3-methyl-butyryl]-piperazine-1-carboxylic acid butyl ester], the IC50 at human P2Y12 receptor was determined as 28 nM; in assay [1], 260 nM.
The corresponding values for `CCCCOC(=O)N1CCN(C(=O)[C@H](COC)NC(=O)c2cc(OCC(=O)N3CCC[C@H]3C(=O)NC3CCC3)n(-c3ccccc3)n2)CC1` [Example 232, 4-[(S)-2-({5-[2-((S)-2-Cyclobutylcarbamoyl-pyrrolidin-1-yl)-2-oxo-ethoxy]-1-phenyl-1H-pyrazole-3-carbonyl}-amino)-3-methoxy-propionyl]-piperazine-1-carboxylic acid butyl ester] are 16 nM and 410 nM.
The corresponding values for `CCOC(=O)N1CCN(C(=O)[C@H](CCC(=O)O)NC(=O)c2cc(OCC(=O)N3CCC[C@H]3C(=O)NC3CCC3)n(-c3ccc(F)c(F)c3)n2)CC1` [Example 83, 4-((S)-4-Carboxy-2-{[5-[2-((S)-2-cyclobutylcarbamoyl-pyrrolidin-1-yl)-2-oxo-ethoxy]-1-(3,4-difluoro-phenyl)-1H-pyrazole-3-carbonyl]-amino}-butyryl)-piperazine-1-carboxylic acid ethyl ester] are 31 nM and 120 nM.
The corresponding values for `CCCCOC(=O)N1CCN(C(=O)CNC(=O)c2cc(OCC(=O)N3C[C@H](O)C[C@H]3C(=O)NC3CCC3)n(-c3ccccc3)n2)CC1` [Example 270, 4-[2-({5-[2-((2S,4R)-2-Cyclobutylcarbamoyl-4-hydroxy-pyrrolidin-1-yl)-2-oxo-ethoxy]-1-phenyl-1H-pyrazole-3-carbonyl}-amino)-acetyl]-piperazine-1-carboxylic acid butyl ester] are 40 nM and 17 nM.
`CCOC(=O)N1CCN(C(=O)[C@H](CCNC(=O)C2CC2)NC(=O)c2cc(OCC(=O)N3CCC[C@H]3C(=O)NC3CCC3)n(-c3ccccc3)n2)CC1` [Example 95, 4-[(S)-2-({5-[2-((S)-2-Cyclobutylcarbamoyl-pyrrolidin-1-yl)-2-oxo-ethoxy]-1-phenyl-1H-pyrazole-3-carbonyl}-amino)-4-(cyclopropanecarbonyl-amino)-butyryl]-piperazine-1-carboxylic acid ethyl ester]: the IC50 turned out to be 76 nM on human P2Y12 receptor and 260 nM in assay [1].
The corresponding values for `CCOC(=O)N1CCN(C(=O)[C@H](CCC(=O)OCC2CC2)NC(=O)c2cc(OCC(=O)N3CCC[C@H]3C(=O)NC3CCC3)n(-c3ccccc3)n2)CC1` [Example 128, 4-[(S)-2-({5-[2-((S)-2-Cyclobutylcarbamoyl-pyrrolidin-1-yl)-2-oxo-ethoxy]-1-phenyl-1H-pyrazole-3-carbonyl}-amino)-4-cyclopropylmethoxycarbonyl-butyryl]-piperazine-1-carboxylic acid ethyl ester] are 43 nM and 690 nM.
The corresponding values for `CCCOC(=O)N1CCN(C(=O)[C@H](C)NC(=O)c2cc(OCC(=O)N3CCC[C@H]3C(=O)NC3CCC3)n(-c3ccccc3)n2)CC1` [Example 208, 4-[(S)-2-({5-[2-((S)-2-Cyclobutylcarbamoyl-pyrrolidin-1-yl)-2-oxo-ethoxy]-1-phenyl-1H-pyrazole-3-carbonyl}-amino)-propionyl]-piperazine-1-carboxylic acid propyl ester] are 126 nM and 390 nM.
Turning to `CCOC(=O)N1CCN(C(=O)[C@H](CCC(=O)OCC2CCCC2)NC(=O)c2cc(OCC(=O)N3CCC[C@H]3C(=O)NC3CCC3)n(-c3ccccc3)n2)CC1` [Example 138, 4-[(S)-2-({5-[2-((S)-2-Cyclobutylcarbamoyl-pyrrolidin-1-yl)-2-oxo-ethoxy]-1-phenyl-1H-pyrazole-3-carbonyl}-amino)-4-cyclopentylmethoxycarbonyl-butyryl]-piperazine-1-carboxylic acid ethyl ester], the IC50 came out at 83 nM on human P2Y12 receptor and 1650 nM in assay [1].
The corresponding values for `CCOC(=O)N1CCN(C(=O)[C@H](CCC(=O)O)NC(=O)c2cc(OCC(=O)N3CCC[C@H]3C(=O)NCC(F)F)n(-c3cccc(F)c3)n2)CC1` [Example 76, 4-((S)-4-Carboxy-2-{[5-[2-((S)-2-(2,2-difluoroethylcarbamoyl)-pyrrolidin-1-yl)-2-oxo-ethoxy]-1-(3-fluoro-phenyl)-1H-pyrazole-3-carbonyl]-amino}-butyryl)-piperazine-1-carboxylic acid ethyl ester] are 28 nM and 170 nM.
The corresponding values for `CCCCOC(=O)N1CCN(C(=O)[C@H](CCCOC(C)=O)NC(=O)c2cc(OCC(=O)N3CCC[C@H]3C(=O)NC3CCC3)n(-c3ccccc3)n2)CC1` [Example 211, 4-[(S)-5-Acetoxy-2-({5-[2-((S)-2-cyclobutylcarbamoyl-pyrrolidin-1-yl)-2-oxo-ethoxy]-1-phenyl-1H-pyrazole-3-carbonyl}-amino)-pentanoyl]-piperazine-1-carboxylic acid butyl ester] are 20 nM and 280 nM.
The corresponding values for `CCOC(=O)N1CCN(C(=O)[C@H](CCNC(=O)OC)NC(=O)c2cc(OCC(=O)N3CCC[C@H]3C(=O)NC3CCC3)n(-c3ccccc3)n2)CC1` [Example 93, 4-[(S)-2-({5-[2-((S)-2-Cyclobutylcarbamoyl-pyrrolidin-1-yl)-2-oxo-ethoxy]-1-phenyl-1H-pyrazole-3-carbonyl}-amino)-4-methoxycarbonylamino-butyryl]-piperazine-1-carboxylic acid ethyl ester] are 108 nM and 590 nM.
As for `CCOC(=O)N1CCN(C(=O)[C@H](CF)NC(=O)c2cc(OCC(=O)N3CCC[C@H]3C(=O)NC3CCC3)n(-c3ccccc3)n2)CC1` [Example 261, 4-[(R)-2-({5-[2-((S)-2-Cyclobutylcarbamoyl-pyrrolidin-1-yl)-2-oxo-ethoxy]-1-phenyl-1H-pyrazole-3-carbonyl}-amino)-3-fluoro-propionyl]-piperazine-1-carboxylic acid ethyl ester], the IC50 on human P2Y12 receptor came out at 18 nM; in assay [1] it was 60 nM.
For `CCOCCOC(=O)CC[C@H](NC(=O)c1cc(OCC(=O)N2CCC[C@H]2C(=O)NC2CCC2)n(-c2ccccc2)n1)C(=O)N1CCN(C(=O)OCC)CC1` [Example 198, 4-[(S)-2-({5-[2-((S)-2-Cyclobutylcarbamoyl-pyrrolidin-1-yl)-2-oxo-ethoxy]-1-phenyl-1H-pyrazole-3-carbonyl}-amino)-4-(2-ethoxy-ethoxycarbonyl)-butyryl]-piperazine-1-carboxylic acid ethyl ester], in that order: 116 nM and 720 nM.
The corresponding values for `CCOC(=O)N1CCN(C(=O)[C@H](CCC(=O)O)NC(=O)c2cc(OCC(=O)N3CC(F)(F)C[C@H]3C(=O)NC3CCC3)n(-c3ccccc3)n2)CC1` [Example 164, 4-[(S)-4-Carboxy-2-({5-[2-((S)-2-cyclobutylcarbamoyl-4,4-difluoro-pyrrolidin-1-yl)-2-oxo-ethoxy]-1-phenyl-1H-pyrazole-3-carbonyl}-amino)-butyryl]-piperazine-1-carboxylic acid ethyl ester] are 81 nM and 40 nM.
The corresponding values for `O=C(NCC(=O)N1CCN(C(=O)OC2CCC2)CC1)c1cc(OCC(=O)N2CCC[C@H]2C(=O)NC2CCC2)n(-c2ccccc2)n1` [Example 192, 4-[2-({5-[2-((S)-2-Cyclobutylcarbamoyl-pyrrolidin-1-yl)-2-oxo-ethoxy]-1-phenyl-1H-pyrazole-3-carbonyl}-amino)-acetyl]-piperazine-1-carboxylic acid cyclobutyl ester] are 131 nM and 190 nM.
As to `CCCOC(=O)N1CCN(C(=O)[C@H](CC(F)(F)F)NC(=O)c2cc(OCC(=O)N3CCC[C@H]3C(=O)NC3CCC3)n(-c3ccccc3)n2)CC1` [Example 273, 4-[(S)-2-({5-[2-((S)-2-Cyclobutylcarbamoyl-pyrrolidin-1-yl)-2-oxo-ethoxy]-1-phenyl-1H-pyrazole-3-carbonyl}-amino)-4,4,4-trifluoro-butyryl]-piperazine-1-carboxylic acid propyl ester], the results for the IC50 (at human P2Y12 receptor; in assay [1]) were 160 nM and 380 nM, respectively.
For `COC(=O)CC[C@H](NC(=O)c1cc(OCC(=O)N2CCC[C@H]2C(=O)NC2CCC2)n(-c2ccccc2)n1)C(=O)N1CCN(C(=O)OC2CCC2)CC1` [Example 189, 4-[(S)-2-({5-[2-((S)-2-Cyclobutylcarbamoyl-pyrrolidin-1-yl)-2-oxo-ethoxy]-1-phenyl-1H-pyrazole-3-carbonyl}-amino)-4-methoxycarbonyl-butyryl]-piperazine-1-carboxylic acid cyclobutyl ester], in that order: 35 nM and 350 nM.
For `CCOC(=O)N1CCN(C(=O)[C@H](CCC(=O)O)NC(=O)c2cc(OCC(=O)N3CCC[C@H]3C(=O)NC3CCC3)n(-c3ccccc3)n2)[C@H](C)C1` [Example 150, (R)-4-[(S)-4-Carboxy-2-({5-[2-((S)-2-cyclobutylcarbamoyl-pyrrolidin-1-yl)-2-oxo-ethoxy]-1-phenyl-1H-pyrazole-3-carbonyl}-amino)-butyryl]-3-methyl-piperazine-1-carboxylic acid ethyl ester], in that order: 20 nM and 70 nM.

Broadly, the IC50 is the point on the concentration scale where inhibition reaches its midpoint.

The record behind these values is patent US8426420B2, “Heterocyclic pyrazole-carboxamidesas P2Y12 antagonists” (Sanofi, priority 2007, dated 2013).
